Reference: PubChem BioAssay (NCI)
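Values below derive from 48-hour exposures of cells grown in 96-well plates, with endpoints linearly interpolated between the two concentrations bracketing the appropriate inhibition level. At the GI50, growth is halved. The concentration for full growth arrest is given as TGI.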

Key:
Assay in all cases: growth of human tumour cells (NCI), 48 h
786-0 renal = system: 786-0 renal
A498 renal = system: A498 renal
A549 NSCLC = system: A549 NSCLC
ACHN renal = system: ACHN renal
BT-549 breast = system: BT-549 breast
CAKI-1 renal = system: CAKI-1 renal
CCRF-CEM leukemia = system: CCRF-CEM leukemia
COLO 205 colon = system: COLO 205 colon
DU-145 prostate = system: DU-145 prostate
HCC-2998 colon = system: HCC-2998 colon
HCT-116 colon = system: HCT-116 colon
HCT-15 colon = system: HCT-15 colon
HL-60(TB) leukemia = system: HL-60(TB) leukemia
HOP-62 NSCLC = system: HOP-62 NSCLC
HOP-92 NSCLC = system: HOP-92 NSCLC
HS 578T breast = system: HS 578T breast
HT29 colon = system: HT29 colon
IGROV1 ovarian = system: IGROV1 ovarian
K-562 leukemia = system: K-562 leukemia
KM12 colon = system: KM12 colon
LOX IMVI melanoma = system: LOX IMVI melanoma
M14 melanoma = system: M14 melanoma
MALME-3M melanoma = system: MALME-3M melanoma
MCF7 breast = system: MCF7 breast
MDA-MB-231 breast = system: MDA-MB-231 breast
MDA-MB-435 = system: MDA-MB-435
MOLT-4 leukemia = system: MOLT-4 leukemia
NCI-H226 lung = system: NCI-H226 lung
NCI-H23 lung = system: NCI-H23 lung
NCI-H460 lung = system: NCI-H460 lung
NCI-H522 lung = system: NCI-H522 lung
NCI/ADR-RES ovarian = system: NCI/ADR-RES ovarian
OVCAR-3 ovarian = system: OVCAR-3 ovarian
OVCAR-4 ovarian = system: OVCAR-4 ovarian
OVCAR-5 ovarian = system: OVCAR-5 ovarian
OVCAR-8 ovarian = system: OVCAR-8 ovarian
PC-3 prostate = system: PC-3 prostate
RPMI-8226 leukemia = system: RPMI-8226 leukemia
RXF 393 renal = system: RXF 393 renal
SF-268 CNS = system: SF-268 CNS
SF-295 CNS = system: SF-295 CNS
SF-539 CNS = system: SF-539 CNS
SK-MEL-2 melanoma = system: SK-MEL-2 melanoma
SK-MEL-28 melanoma = system: SK-MEL-28 melanoma
SK-MEL-5 melanoma = system: SK-MEL-5 melanoma
SK-OV-3 ovarian = system: SK-OV-3 ovarian
SN12C renal = system: SN12C renal
SNB-19 CNS = system: SNB-19 CNS
SNB-75 CNS = system: SNB-75 CNS
SW-620 colon = system: SW-620 colon
T-47D breast = system: T-47D breast
TK-10 renal = system: TK-10 renal
U251 CNS = system: U251 CNS
UACC-257 melanoma = system: UACC-257 melanoma
UACC-62 melanoma = system: UACC-62 melanoma
UO-31 renal = system: UO-31 renal
EKVX NSCLC = system: EKVX NSCLC

In the case of `O=C1NC(=NCc2c(Cl)cccc2Cl)S/C1=C\c1ccc2ncccc2c1`, the GI50 (786-0 renal) is reported as 9.79 µM, the TGI (786-0 renal) is reported as > 25 µM and the GI50 (A498 renal) is reported as 4.47 µM. The TGI (A498 renal) was > 25 µM, the GI50 (A549 NSCLC) was 10.2 µM and the TGI (A549 NSCLC) was > 25 µM. For the same compound, the GI50 (ACHN renal) was 8.11 µM, the TGI (ACHN renal) was > 25 µM and the GI50 (BT-549 breast) was 6.24 µM. The TGI (BT-549 breast) was > 25 µM, the GI50 (CAKI-1 renal) was 11 µM and the TGI (CAKI-1 renal) was > 25 µM. For the same compound, the GI50 (CCRF-CEM leukemia) was 9.19 µM, the TGI (CCRF-CEM leukemia) was > 25 µM and the GI50 (COLO 205 colon) was 14.7 µM. The TGI (COLO 205 colon) was > 25 µM, the GI50 (DU-145 prostate) was 6.3 µM and the TGI (DU-145 prostate) was > 25 µM. The GI50 (HCC-2998 colon) was > 25 µM, the TGI (HCC-2998 colon) was > 25 µM and the GI50 (HCT-116 colon) was 6.15 µM. The TGI (HCT-116 colon) was > 25 µM, the GI50 (HCT-15 colon) was 4.85 µM and the TGI (HCT-15 colon) was > 25 µM. The GI50 (HL-60(TB) leukemia) was 5.35 µM, the TGI (HL-60(TB) leukemia) was > 25 µM and the GI50 (HOP-62 NSCLC) was 7.03 µM. The TGI (HOP-62 NSCLC) was > 19.9 µM, the GI50 (HOP-92 NSCLC) was 4.25 µM and the TGI (HOP-92 NSCLC) was 20.2 µM. The GI50 (HS 578T breast) was 8.78 µM, the TGI (HS 578T breast) was > 21.1 µM and the GI50 (HT29 colon) was 24.9 µM. For the same compound, the TGI (HT29 colon) was > 25 µM, the GI50 (IGROV1 ovarian) was 13.1 µM and the TGI (IGROV1 ovarian) was > 25 µM. For the same compound, the GI50 (K-562 leukemia) was 8.91 µM, the TGI (K-562 leukemia) was > 25 µM and the GI50 (KM12 colon) was 16 µM. For the same compound, the TGI (KM12 colon) was > 25 µM, the GI50 (LOX IMVI melanoma) was 13.7 µM and the TGI (LOX IMVI melanoma) was > 25 µM. The GI50 (M14 melanoma) was > 23.3 µM, the TGI (M14 melanoma) was > 25 µM and the GI50 (MALME-3M melanoma) was 10.6 µM. The TGI (MALME-3M melanoma) was > 25 µM, the GI50 (MCF7 breast) was 16.1 µM and the TGI (MCF7 breast) was > 25 µM. For the same compound, the GI50 (MDA-MB-231 breast) was 16.3 µM, the TGI (MDA-MB-231 breast) was > 25 µM and the GI50 (MDA-MB-435) was 9.24 µM. The TGI (MDA-MB-435) was > 25 µM, the GI50 (MOLT-4 leukemia) was 12.9 µM and the TGI (MOLT-4 leukemia) was > 25 µM. The GI50 (NCI-H226 lung) was 6.61 µM, the TGI (NCI-H226 lung) was > 25 µM and the GI50 (NCI-H23 lung) was 11.6 µM. For the same compound, the TGI (NCI-H23 lung) was > 25 µM, the GI50 (NCI-H460 lung) was 8.31 µM and the TGI (NCI-H460 lung) was > 25 µM. It also gave a GI50 (NCI-H522 lung) of 3.99 µM, a TGI (NCI-H522 lung) of 8.77 µM and a GI50 (NCI/ADR-RES ovarian) of 12 µM. The TGI (NCI/ADR-RES ovarian) was > 25 µM, the GI50 (OVCAR-3 ovarian) was 8.22 µM and the TGI (OVCAR-3 ovarian) was > 25 µM. For the same compound, the GI50 (OVCAR-4 ovarian) was 6.53 µM, the TGI (OVCAR-4 ovarian) was > 24 µM and the GI50 (OVCAR-5 ovarian) was > 19.5 µM. For the same compound, the TGI (OVCAR-5 ovarian) was > 25 µM, the GI50 (OVCAR-8 ovarian) was 10.6 µM and the TGI (OVCAR-8 ovarian) was > 25 µM. The GI50 (PC-3 prostate) was 13.4 µM, the TGI (PC-3 prostate) was > 25 µM and the GI50 (RPMI-8226 leukemia) was 9.29 µM. The TGI (RPMI-8226 leukemia) was > 25 µM, the GI50 (RXF 393 renal) was 6.05 µM and the TGI (RXF 393 renal) was > 24.2 µM. The GI50 (SF-268 CNS) was 6.71 µM, the TGI (SF-268 CNS) was > 25 µM and the GI50 (SF-295 CNS) was > 12.1 µM. For the same compound, the TGI (SF-295 CNS) was > 25 µM, the GI50 (SF-539 CNS) was 3.59 µM and the TGI (SF-539 CNS) was 10.7 µM. The GI50 (SK-MEL-2 melanoma) was 9.12 µM, the TGI (SK-MEL-2 melanoma) was 24.5 µM and the GI50 (SK-MEL-28 melanoma) was > 22.9 µM. For the same compound, the TGI (SK-MEL-28 melanoma) was > 25 µM, the GI50 (SK-MEL-5 melanoma) was 13.9 µM and the TGI (SK-MEL-5 melanoma) was > 25 µM. The GI50 (SK-OV-3 ovarian) was 7.53 µM, the TGI (SK-OV-3 ovarian) was > 25 µM and the GI50 (SN12C renal) was 14.1 µM. The TGI (SN12C renal) was > 25 µM, the GI50 (SNB-19 CNS) was 11.3 µM and the TGI (SNB-19 CNS) was > 25 µM. For the same compound, the GI50 (SNB-75 CNS) was 1140 nM, the TGI (SNB-75 CNS) was > 25 µM and the GI50 (SW-620 colon) was 10.6 µM. For the same compound, the TGI (SW-620 colon) was > 25 µM, the GI50 (T-47D breast) was 9.64 µM and the TGI (T-47D breast) was > 25 µM. For the same compound, the GI50 (TK-10 renal) was 3.14 µM, the TGI (TK-10 renal) was > 22.9 µM and the GI50 (U251 CNS) was 8.17 µM. For the same compound, the TGI (U251 CNS) was > 25 µM, the GI50 (UACC-257 melanoma) was > 13.7 µM and the TGI (UACC-257 melanoma) was > 25 µM. The GI50 (UACC-62 melanoma) was 15.9 µM, the TGI (UACC-62 melanoma) was > 25 µM and the GI50 (UO-31 renal) was 4.72 µM. For the same compound, the TGI (UO-31 renal) was 21.1 µM.

For `N#CC(NCCc1ccccc1)c1ccc(C(C#N)NCCc2ccccc2)cc1` (stereo unspecified), the TGI (786-0 renal) was > 100 µM, the TGI (A498 renal) was > 100 µM and the TGI (A549 NSCLC) was > 100 µM. For the same compound, the TGI (ACHN renal) was > 100 µM, the TGI (BT-549 breast) was 56.1 µM and the TGI (CAKI-1 renal) was > 100 µM. The TGI (CCRF-CEM leukemia) was 65.7 µM, the TGI (COLO 205 colon) was > 100 µM and the TGI (DU-145 prostate) was > 100 µM. For the same compound, the TGI (EKVX NSCLC) was > 100 µM, the TGI (HCC-2998 colon) was > 100 µM and the TGI (HCT-116 colon) was > 100 µM. The TGI (HCT-15 colon) was > 100 µM, the TGI (HL-60(TB) leukemia) was 40.8 µM and the TGI (HOP-92 NSCLC) was > 100 µM. The TGI (HS 578T breast) was > 100 µM, the TGI (HT29 colon) was > 100 µM and the TGI (IGROV1 ovarian) was > 100 µM. The TGI (K-562 leukemia) was 70.6 µM, the TGI (KM12 colon) was > 100 µM and the TGI (LOX IMVI melanoma) was > 100 µM. For the same compound, the TGI (M14 melanoma) was > 100 µM, the TGI (MALME-3M melanoma) was > 100 µM and the TGI (MCF7 breast) was > 100 µM. For the same compound, the TGI (MDA-MB-231 breast) was > 100 µM, the TGI (MDA-MB-435) was > 100 µM and the TGI (MOLT-4 leukemia) was > 100 µM. For the same compound, the TGI (NCI-H226 lung) was > 100 µM, the TGI (NCI-H23 lung) was > 100 µM and the TGI (NCI-H460 lung) was > 100 µM. For the same compound, the TGI (NCI-H522 lung) was > 100 µM, the TGI (NCI/ADR-RES ovarian) was 57.5 µM and the TGI (OVCAR-3 ovarian) was > 100 µM. The TGI (OVCAR-4 ovarian) was > 100 µM, the TGI (OVCAR-5 ovarian) was > 100 µM and the TGI (OVCAR-8 ovarian) was > 100 µM. For the same compound, the TGI (PC-3 prostate) was > 100 µM, the TGI (RXF 393 renal) was > 100 µM and the TGI (SF-268 CNS) was > 100 µM. The TGI (SF-295 CNS) was > 100 µM, the TGI (SF-539 CNS) was > 100 µM and the TGI (SK-MEL-2 melanoma) was > 100 µM. For the same compound, the TGI (SK-MEL-28 melanoma) was > 100 µM, the TGI (SK-MEL-5 melanoma) was > 100 µM and the TGI (SK-OV-3 ovarian) was > 100 µM. For the same compound, the TGI (SN12C renal) was > 100 µM, the TGI (SNB-19 CNS) was > 100 µM and the TGI (SW-620 colon) was > 100 µM. For the same compound, the TGI (T-47D breast) was > 100 µM, the TGI (TK-10 renal) was > 100 µM and the TGI (U251 CNS) was > 100 µM. For the same compound, the TGI (UACC-257 melanoma) was > 100 µM, the TGI (UACC-62 melanoma) was > 100 µM and the TGI (UO-31 renal) was > 100 µM.
